Results: PubChem BioAssay (NCI)
Several values for one entry are separate records, joined by “and”; a condition that tells them apart may be missing. Equal values may be shown once.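 Tested at 5 concentrations; 48 h exposure; 96-well plates; endpoints linearly interpolated, else capped at highest concentration. GI50 = concentration required for 50% inhibition of growth. TGI: concentration producing complete growth inhibition.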

Experiments:
Test in all cases: DTP human tumour cell line panel, 48 h
MDA-N = tested on: MDA-N
SNB-78 CNS = tested on: SNB-78 CNS
DMS 273 small cell lung = tested on: DMS 273 small cell lung
M19-MEL melanoma = tested on: M19-MEL melanoma
SN12K1 renal = tested on: SN12K1 renal
KM20L2 colon = tested on: KM20L2 colon
HOP-18 NSCLC = tested on: HOP-18 NSCLC
DMS 114 small cell lung = tested on: DMS 114 small cell lung
XF 498 CNS = tested on: XF 498 CNS
RXF-631 renal = tested on: RXF-631 renal

| Compound | TGI (MDA-N) | TGI (SNB-78 CNS) | TGI (DMS 273 small cell lung) | TGI (M19-MEL melanoma) | TGI (KM20L2 colon) | TGI (HOP-18 NSCLC) | TGI (DMS 114 small cell lung) | TGI (XF 498 CNS) | TGI (RXF-631 renal) | further results |
| --- | --- | --- | --- | --- | --- | --- | --- | --- | --- | --- |
| C(=NCCN1CCOCC1)=NC1CCCCC1 | > 100 µM |  |  |  |  |  |  |  |  |  |
| CN(C)CCNC(=O)c1cccc2ccc(-c3ccc(O)cc3)nc12 | 8.3 µM | 20.3 µM | 6.07 µM | 7.04 µM and 6.83 µM | 21.7 µM | 7.14 µM and 8.35 µM | 10.8 µM and 7.31 µM |  |  | GI50 (M19-MEL melanoma): 2.12 µM; GI50 (SN12K1 renal): 0.383 µM; TGI (SN12K1 renal): 3.21 µM and 2.35 µM; GI50 (HOP-18 NSCLC): 2.44 µM |
| COc1cccc(C2CC(C)(O)Oc3cc4c(cc32)OCO4)c1O (configuration not stated) | 10.4 µM |  |  |  |  |  |  |  |  |  |
| Cc1ccc(S(=O)(=O)Nc2ccccc2C=O)cc1 | 42.9 µM |  |  |  |  |  |  |  |  |  |
| c1ccc2cc(-c3cc4ccccc4s3)ccc2c1 |  | > 100 µM | > 100 µM | > 100 µM | > 100 µM | > 100 µM | > 100 µM | > 100 µM |  |  |
| CC(C)(C)NNC(=O)CCn1[nH]c(=O)c(Cl)c(Cl)c1=O |  |  | > 100 µM | > 100 µM | > 100 µM | > 100 µM | > 100 µM | > 100 µM | > 100 µM |  |
| O=C1CCC(Cl)=CC2CCCN12 (configuration not stated) |  | > 100 µM |  | > 100 µM | > 100 µM |  | > 100 µM |  |  |  |
| CC1(C)COC(C2(C)C(=O)C=C(c3ccccc3)c3ccccc32)=N1 (configuration not stated) |  |  |  | > 100 µM | > 100 µM | > 100 µM | > 100 µM |  | > 100 µM |  |
| CC(=O)CCn1ncc(Cl)c(Cl)c1=O |  | 43 µM | 32 µM | 17.2 µM | 36.2 µM | 30.5 µM |  | 35.5 µM |  |  |
| CC(C)N(C(=O)C12C3C4C1C1C4(C#N)C3C12C#N)C(C)C (configuration not stated) |  | > 100 µM |  | > 100 µM | > 100 µM | > 100 µM | > 100 µM | > 100 µM | > 100 µM |  |
| O=CCC1CCCCC1 | > 100 µM |  |  |  |  |  |  |  |  |  |
| COc1cccc2c1C(=O)c1c(O)c3c(c(O)c1C2=O)C[C@@](O)(C(=O)CO)C[C@@H]3OC1CC(N)CC(C)O1 (some centres not stated) | 0.274 µM and 0.132 µM | 1.73 µM and 2.02 µM | 0.202 µM and 0.129 µM | 0.186 µM and 0.174 µM | 0.528 µM and 1.41 µM | 0.906 µM and 0.445 µM | 0.167 µM and 0.299 µM | 0.144 µM and 0.101 µM | 0.9 µM | GI50 (MDA-N): 0.0272 µM; GI50 (SNB-78 CNS): 0.085 µM; GI50 (DMS 273 small cell lung): 0.0134 µM and 0.0303 µM; GI50 (M19-MEL melanoma): 0.0363 µM; TGI (SN12K1 renal): 0.0846 µM; GI50 (KM20L2 colon): 0.0545 µM; GI50 (HOP-18 NSCLC): 0.0713 µM; GI50 (DMS 114 small cell lung): 0.0238 µM and 0.0476 µM; GI50 (XF 498 CNS): 0.0251 µM and 0.052 µM |
| COC(=O)C[C@](O)(CCCC(C)(C)O)C(=O)O[C@@H]1C(OC)=C[C@]23CCCN2CCc2cc4c(cc2[C@H]13)OCO4 | > 25 µM | 0.285 µM | < 0.0204 µM | 0.0866 µM | 0.338 µM | 0.418 µM | 0.0162 µM | 0.0391 µM |  | TGI (SN12K1 renal): 0.0481 µM |
| COc1ccc2occ(CCC(=O)O)c2c1 |  | > 100 µM | > 100 µM | > 100 µM | > 100 µM | > 100 µM | > 100 µM | > 100 µM |  |  |
| O=C1CCC2(c3ccc(Cl)cc3)Nc3ncccc3N12 (configuration not stated) |  | > 100 µM |  | > 100 µM | > 100 µM |  | > 100 µM | > 100 µM |  |  |
| CCC12CCCN(Cc3ccccc3)C1c1c(n(C)c3ccccc13)CC2 (configuration not stated) |  |  | > 253 µM | > 253 µM | > 253 µM |  |  |  |  |  |
| CCC(=O)CC(=O)CCC(=O)Nc1cc(C)ccc1C |  | > 100 µM |  |  | > 100 µM | > 100 µM |  | > 100 µM |  |  |
| COc1cc(C(=O)N2CCN(C=O)C2=S)cc(OC)c1OC | 34.5 µM |  |  |  |  |  |  |  |  | GI50 (MDA-N): 17.9 µM |
| O=C(Nc1ccc2ncccc2c1)Nc1ccc2ncccc2c1 | > 100 µM |  |  |  |  |  |  |  |  |  |
| CCCCOC(=O)CNC(=O)OC/C=C/C#CC#C/C=C/COC(=O)NCC(=O)OCCCC |  | > 10 µM |  | > 100 µM | > 100 µM | > 10 µM | > 100 µM | > 10 µM | > 100 µM | GI50 (RXF-631 renal): > 100 µM; GI50 (M19-MEL melanoma): > 100 µM; GI50 (KM20L2 colon): > 100 µM; GI50 (DMS 114 small cell lung): > 100 µM |

| Compound | TGI (MDA-N) | TGI (SNB-78 CNS) | TGI (DMS 273 small cell lung) | TGI (M19-MEL melanoma) | TGI (KM20L2 colon) | TGI (HOP-18 NSCLC) | TGI (DMS 114 small cell lung) | TGI (XF 498 CNS) | TGI (RXF-631 renal) | further results |
| --- | --- | --- | --- | --- | --- | --- | --- | --- | --- | --- |
| CCOC(=O)c1ccc(NC(=O)Oc2ccc3c(C)cc(=O)oc3c2)cc1 | > 100 µM |  |  |  |  |  |  |  |  |  |
| O=c1/c(=C/c2ccccc2[N+](=O)[O-])sc2nnc(-c3ccco3)n12 |  | 72.3 µM | > 100 µM | 38.3 µM | > 100 µM | 57.8 µM | 40.4 µM | 34.5 µM |  |  |
| Cc1cn2c(=O)c3ncn(C4OC(CO)C(O)C4O)c3n(C)c2n1 (configuration not stated) |  | > 100 µM | > 100 µM | > 100 µM | > 100 µM | > 100 µM | > 100 µM |  | > 100 µM |  |
| Cc1ccc(S(=O)(=O)N(C=O)N=C2CCN(Cc3ccccc3)CC2)cc1 |  | > 100 µM | > 100 µM | > 100 µM | > 100 µM | > 100 µM |  | > 100 µM | > 100 µM |  |
| O=C(Nc1ccn(CCO)c(=O)n1)c1ccccc1 |  | > 100 µM | > 100 µM | > 100 µM | > 100 µM | > 100 µM | > 100 µM |  | > 100 µM |  |
| N.N.N.N.O=C([O-])CCl.O=C([O-])CCl.[Co+3].[O-][Cl+3]([O-])([O-])[O-] |  | > 100 µM |  |  | > 100 µM |  |  |  |  | GI50 (SNB-78 CNS): > 100 µM; GI50 (KM20L2 colon): > 100 µM |
| N#CN/C(N)=N/CO |  | > 100 µM | > 100 µM | > 100 µM | > 100 µM | > 100 µM | > 60.9 µM | > 100 µM | > 100 µM |  |
| Clc1ccc2c(c1)[nH]c1c2nc2ccccn21 |  | 83.9 µM and 61.6 µM |  | > 100 µM and 47.6 µM | 74.9 µM and 28.7 µM | > 100 µM |  | 89.1 µM and 29.8 µM | > 100 µM and 69.2 µM | GI50 (M19-MEL melanoma): 42.3 µM and 20.1 µM; GI50 (HOP-18 NSCLC): 41.9 µM; GI50 (XF 498 CNS): 35.9 µM and 16 µM |
| CC12C/C(=C\c3ccccc3)C(=O)C3C1CCCC32 |  |  | > 100 µM | > 100 µM | > 100 µM | > 100 µM | > 100 µM | > 100 µM | > 100 µM |  |
| O=C(CCN(C(=O)O)S(=O)(=O)c1ccc(NC(=O)c2ccccc2)cc1)Nc1ccccc1 |  | > 100 µM | > 82.4 µM | > 100 µM | > 100 µM | > 100 µM | > 68.5 µM | > 100 µM | > 100 µM |  |
| CC(C)C(CCl)NC(=O)c1cccc(C(=O)N[C@H](CCl)C(C)C)n1 (stereo in doubt) |  | > 100 µM | > 100 µM | > 100 µM | > 100 µM |  | > 100 µM | > 100 µM | > 100 µM |  |
| COC(=O)C(C(=O)c1ccccc1)C(C(=O)C(=O)Nc1ccc(OC)cc1OC)C(=O)C(=O)c1ccc(C)cc1 (configuration not stated) |  | > 100 µM | > 100 µM | > 100 µM | > 100 µM | > 100 µM | > 100 µM | > 100 µM | > 100 µM |  |
| CCOC(=O)c1cnc2c(ccc3[nH]n(C)nc32)c1=O |  | 38.6 µM | 73.4 µM | > 100 µM | > 100 µM | > 100 µM | > 100 µM | > 100 µM | > 100 µM |  |
| COC(=O)C1c2cc3c(cc2C(OC2OC(C)C(OC)C(C)(OC)C2OC)CC1(C)O)C(=O)c1c(O)cc2c(c1C3=O)OC1OC2(C)C(O)C([N+](C)(C)[O-])C1O (configuration not stated) | 1.03 µM |  |  |  |  |  |  |  |  |  |
| CC(C)CCC1CC2C(=O)N(c3ccccc3)C(=O)C2c2[nH]c3ccccc3c21 (configuration not stated) |  | 25.6 µM | 2.72 µM | 20 µM |  | 21.6 µM | 2.81 µM | 6.08 µM | 13.8 µM |  |
| CSc1nc(=O)n(CCC#N)nc1SC | 51.4 µM |  |  |  |  |  |  |  |  |  |
| O=C(O)c1nnsc1-c1ccc(-c2snnc2C(=O)O)cc1 | > 100 µM |  |  |  |  |  |  |  |  |  |
| CN1CC(=O)N2Cc3ccccc3-n3cccc3C2C1 (configuration not stated) |  | > 100 µM | > 100 µM | > 100 µM | > 100 µM | 91.7 µM |  | > 100 µM | > 100 µM |  |
| OC(CC1SCCCS1)c1ccccc1 (configuration not stated) |  |  | > 100 µM | > 100 µM | > 100 µM | > 100 µM | > 100 µM | > 100 µM |  |  |
